These results are taken from patent publication US9492497B2, “Peptides for the treatment of cancer” (ÖSTERREICHISCHE AKADEMIE DER WISSENSCHAFTEN, priority 2013, dated 2016).

Entries after “also recorded” stand apart in the source; their conditions may differ. Like-named read-outs stand apart in the source and are kept apart here. Marks after values point to notes of the source that are not given here. Positions of bridges follow the written chain, without caps; N, C: chain ends. Residues, ends and D or L forms follow the SMILES beside them. No end group written: not given here.

In series [1] the test system is A375 melanoma cell line. The following applies: 20 μM peptide, 8 h, PI-uptake. The text has this:
(§1) Epidermis was separated. […] The pellet was resuspended in melanocyte growth media (Biomedica). […] All cell cultures were periodically checked for mycoplasma.

Series [2] relates to U87 mg glioblastoma cell line. The settings on record: 20 μM peptide, 8 h, PI-uptake.
Excerpt: as §1

Series [3] has as its system normal human dermal fibroblasts (NHDF). Put plainly: PI-uptake assay, NHDF. The class given is cell-based. The following applies: 8 h.
Excerpt: as §1

The test system of series [4] is cancer cells (SBcl-2, WM164). The following applies: read-out: IC50 against cancer cells (MTS), 24 h, FIG. 6C. As to the method:
as §1
(§2) Cell proliferation was measured by using a CellTiter 96 AQ nonradioactive cell proliferation assay (Promega). Cells were plated in 96-well plates and grown until confluence. Peptides were added to a final concentration of 5-100 μM. After incubation for 24 h at 37° C. (5% CO2) MTS [3-(4,5-dimethylthiazol-2yl)-5-(3-carboxymethoxyphenyl)-2-(4-sulfophenyl)-2H-tetrazolium]-phenozine methosulfate solution (20 μl/well) was added and cells were again incubated for 2 h at 37° C. (5% CO2). The MIS compound is bioreduced by cells into a colored formazan product that is soluble in tissue culture medium. The quantity of the formazan product as measured by the amount of 490 nm absorbance is directly proportional to the number of living cells in culture. Data are calculated as a percentage of the control (untreated) samples and represent the average of three wells in one experiment which was repeated three times per cell line.
(§3) To determine long-time toxicity of peptides, a MTS cell proliferation assay was used to elucidate cell viability upon 24 h incubation with variant peptide concentration and human melanoma cell lines SBcl-2 and WM164 and non-differentiated human skin fibroblast cell line NHDF.

The test system of series [5] is human skin fibroblast cell line NHDF. Put plainly: MTS cell proliferation assay, NHDF. The settings on record: read-out: IC50 Fibroblasts / NHDF (MTS); MTS cell viability assay, 24 h. The protocol: as §1, §2, §3
For series [6], the system named is melanoma cell line SBcl-2. Put plainly: PI-uptake assay, SBcl-2. The following applies: 8 h; for IC50: PI-uptake. Format: cell-based, human. As to the method: as §1
Cells were incubated in media containing serum for 8 h in the presence of peptides. Peptide concentrations were varied from 10 to 80 μM.

For series [7], the system named is non-cancer cells (melanocytes, NHDF). Put plainly: PI-uptake assay, non-cancer cells pooled. The settings on record: 20 μM peptide, up to 8 h.
Protocol: The primary human melanoma cell line SBcl2 and the metastatic melanoma WM164 were maintained in RPMI (Sigma) supplemented with 2% FBS, 2% L-glutamine and 1% Pen/Strep. Glioblastoma (U87-mg) purchased from CLS (Cell Line Service Heidelberg, Germany) and Rhabdomyosarcoma cell lines (TE671) purchased from ECAAC (Health Protection Agency Culture Collections Salisbury, UK) are cultured in Dulbecco's Modified Eagle Medium (DMEM) with addition of 2 mM Glutamine, 10% FBS (fetal bovine serum). Melanoma cell line A375 CLS (Cell Line Service Heidelberg, Germany) was cultured in Dulbecco's Modified Eagle Medium (DMEM)(PAA) with addition of 2 mM Glutamine and 10% FBS (fetal bovine serum. Human melanocytes used as healthy control cells: were isolated from the foreskin). The foreskin was cut into small pieces and incubated with 0.3% trypsin (PAA) overnight at 4° C. and for one hour at 37° C. Epidermis was separated. Cells were mechanically removed from the cell layer and centrifuged at 300 g for 3 min. The pellet was resuspended in melanocyte growth media (Biomedica). Melanocytes were further cultured in human melanocytes growth medium (PromoCell GmbH). […]
For detection of PI-uptake by fluorescence spectroscopy experiments were performed according to the following protocol. […]
Cytotoxicity was calculated from the percentage of PI positive cells in media alone (P0) and in the presence of peptide (PX). […]
The subject of series [8] is human red blood cells. Description: Hemolysis. The class given is cell-based. The settings on record: for % lysis of 2.5% RBCs: one hour, 37° C.; for hemolysis IC50: human red blood cells. The protocol: The hemolytic activity towards human red blood cells (RBCs), which were obtained from heparinized human blood, was determined by the release of hemoglobin following one hour incubation at 37° C. in MHNA (Mueller Hinton cation Non Adjusted). Percentage of hemolysis of RBCs was calculated using 1% Triton as 100% lysis and PBS as 0% lysis, peptide concentration was 500 μg/ml.

Series [9] has as its system cancer cells (SBcl-2, WM164, TE671). Put plainly: PI-uptake assay, cancer cells pooled. The class given is cell-based. The following applies: 20 μM peptide; for cytotoxic activity against cancer cells (killing): up to 8 h.
Excerpt: as §1

The subject of series [10] is tumor over non tumor cells. Put plainly: Specificity for tumor over non tumor cells (PI uptake studies). The class given is cell-based, human. The following applies: for Cancer Specificity, -fold specificity for melanoma over non tumor skin cells: melanoma (SBcl2 or A375) over melanocytes or NHDF-c, 8 hours, PI uptake.
Excerpt: as §1

Series [11] concerns melanoma metastasis WM164. The following applies: for IC50: read-out: IC50 WM164 (MTS), 24 h. As to the method: as §1, §2, §3
Series [12] is described as follows: MTS cell proliferation assay, NHDF. The following applies: human, NHDF (normal human dermal fibroblasts). As to the method:
as §1, §2, §3

Series [13] deals with melanoma cell line SBcl-2. Description: MTS cell proliferation assay, SBcl-2. The following applies: 24 h; for IC50: read-out: IC50 SBcl-2 (MTS), MTS cell viability assay. The protocol: as §1, §2, §3
On the technique in general: Tetrazolium assays rely on reduction of a dye to a coloured formazan, in cell work by metabolically active cells.

In series [14] the test system is human red blood cells. The following applies: 500 μg/ml peptide; from Zweytick et al., J. Biol. Chem. 286 (2011); cited from earlier work.
The subject of series [15] is caspase-3/7 activity of melanoma cell line SBcl-2. Description: Spectrofluorimetric analysis of caspase-3/7 activity. Format: cell-based, human. The following applies: SBcl-2, 10-20 μM peptide, 4 hours. The protocol: Spectrofluorimetric analysis of caspase-3/7 activity 5×10^5 cells/ml were seeded into 96-well plate and grown overnight at 37° C. and 5% CO2. Cells were incubated with different concentrations of peptide for 4 hours. Apo-ONE® caspase-3/7 reagent was added in a 1:1 volume ratio and cells were incubated for 4 hours. Cells were then analyzed by fluorescence spectroscopy (GloMax®-Multi+ Microplate Multimode Reader with Instinc™). Untreated cells were used as negative control. Analysis was performed with Apo-ONE® Homogeneous Caspase-3/7 Assay (see FIG. 7).

The subject of series [16] is melanoma metastasis WM164. Put plainly: PI-uptake assay, WM164. Format: cell-based, human. The settings on record: 20 μM peptide. The protocol: as §1
(§4) Cells were incubated in media containing serum for 8 h in the presence of peptides. Peptide concentrations were varied from 10 to 80 μM. FIG. 3 illustrates that the peptide moiety PEP-322 is only minor active against the melanoma cell line SBcl-2 with less than 5% killing at a peptide concentration of 80 μM, as well as against melanocytes with a moderate two-fold selectivity for WM164 cells at 20 μM peptide concentration (FIG. 3C).

In series [17] the test system is differentiated non-tumorigenic melanocytes. Description: PI-uptake assay, melanocytes. The class given is cell-based, human. The settings on record: 20 μM peptide, 8 h. As to the method: as §1, §4
Series [18] in a line: Tryptophan fluorescence and quenching, healthy mimic. The settings on record: in presence of PC. The protocol: (§5) Tryptophan fluorescence spectra were obtained at room temperature using an excitation wavelength of 282 nm and a slit width of 5 nm for excitation and emission monochromators. Quenching of Tryptophan was carried out in the presence and absence of phospholipid liposomes (lipid to peptide ratio 25:1) using 0.1, 0.4 and 0.7 M acrylamide. The data were analyzed according to the Stern-Volmer equation: F0/F=1+KSV[Q] where F0 and F represent the fluorescence emission intensities in the absence and presence of the quencher molecule (Q) and KSV is the Stern-Volmer quenching constant, which is a quantitative measure for the accessibility of tryptophan to acrylamide (Tao, T. and Cho, J. Biochemistry 18(1979), 2759-2765).

Series [19] in a line: Tryptophan fluorescence and quenching, cancer mimic. The following applies: in presence of target lipid PS. As to the method: as §5

For the compound `CC[C@H](C)[C@H](NC(=O)[C@@H]1CSSC[C@H](NC(=O)[C@H](CCCCN)NC(=O)[C@@H](N)[C@@H](C)O)C(=O)N[C@@H](Cc2ccccc2)C(=O)N[C@@H](CCC(N)=O)C(=O)N[C@@H](Cc2c[nH]c3ccccc23)C(=O)N[C@@H](CCC(N)=O)C(=O)N[C@@H](CCCNC(=N)N)C(=O)N[C@@H](CC(N)=O)C(=O)N[C@@H](CCSC)C(=O)N[C@@H](CCCNC(=N)N)C(=O)N[C@@H](CCCCN)C(=O)N[C@@H](C(C)C)C(=O)N[C@@H](CCCNC(=N)N)C(=O)NCC(=O)N2CCC[C@H]2C(=O)N2CCC[C@H]2C(=O)N[C@@H](C(C)C)C(=O)N[C@@H](CO)C(=O)N1)C(=O)N[C@@H](CCCCN)C(=O)N[C@@H](CCCNC(=N)N)C(=O)N[C@@H](CC(=O)O)C(=O)N[C@@H](CO)C(=O)O` [hLFcin (37-61)] (H-TKCFQWQRNMRKVRGPPVSCIKRDS-OH; disulfide 3-20), in series [1], the “cytotoxicity against melanoma cell line A375” value is recorded as “only weak activity”. The “cytotoxicity against glioblastoma cell line U87 mg” value in [2] is recorded as “only weak activity”. Moreover, the “toxicity against normal human dermal fibroblasts NHDF-c” value in series [3] was “no toxicity”.

On to “FWQRRIRRWRRFWQRRIRRWRR-NH2 [DIM-PEP-318]”, for which the IC50 in [4] was below 10 µM; in series [5], 10 µM; in [6], below 20 µM; in series [3], below 20 µM. Also, the “non-cancer toxicity (melanocytes, NHDF)” value in series [7] is recorded as “highly active”. Besides, the “hemolytic activity (in words)” value in series [8] (500 μg/ml peptide, 2.5% red blood cells) is recorded as “not hemolytic”. The “% lysis of 2.5% RBCs” value in series [8] (500 μg/ml peptide) is given as 2.87 ± 0.57%. Moreover, the “hemolysis IC50” value in [8] is above 500 µg/mL. For the same compound, in [9], the “cytotoxic activity against cancer cells (killing)” value is “up to 90%”.

Turning to PFFWRIRIRRPFFWRIRIRR-NH2 [DIM-PEP-324], in series [10], the “activity and selectivity for cancer cells (in words)” value (“activity and selectivity” below) is given as “selective for cancer cells”. In addition, the “Cancer Specificity, -fold specificity for melanoma over non tumor skin cells” value in series [10] (20 μM peptide) was “yes (7fold) (DIM-),”.

For the compound “PFWRIRIRR PFWRIRIRR (PFWRIRIRRPFWRIRIRR) [DIM-PEP-322]”, the “activity and selectivity” value in [10] is “selective for cancer cells”. For the same compound, the “Cancer Specificity, -fold specificity for melanoma over non tumor skin cells” value in series [10] (20 μM peptide) is “yes (50fold)”.

“PFWRIRIRR RRIRIRWFP (PFWRIRIRRRRIRIRWFP) [R-DIM-PEP-322]”: in series [10], the “activity and selectivity” value is recorded as “selective for cancer cells”. The “Cancer Specificity, -fold specificity for melanoma over non tumor skin cells” value in [10] (20 μM peptide) is recorded as “(DIM-), 20fold”. Moreover, in series [9], the “time to highest activity against cancer cells” value is at least 8 h.

One may read the viability as a per cent measure of how many cells are alive, often set against a control. A higher viability goes with better survival. With PFWRIRIRR-NH2 [PEP-322, PFWRIRIRR-NH2], in [11] (100 μM peptide, 24 h, MTS), the “cell viability WM164” value is listed as “more than 70%”. The IC50 in series [11] was above 100 µM; in series [5], above 100 µM; in series [13] it was 90 µM; in series [6], above 80 µM; in [3], above 80 µM. In series [12], the viability at 24 h, 100 μM is above 70%. The “cell viability SBcl-2” value in [13] (100 μM peptide, MTS) is 40%. For the same compound, the “% lysis of 2.5% RBCs” value in series [14] is recorded as 2^b %.

With “PFWRIRIRRD DRRIRIRWFP (PFWRIRIRRDDRRIRIRWFP) [R-DIM-PEP-323]”, in series [10], the “activity and selectivity” value was “selective for cancer cells”.

For the compound “PFWRIRIRRPRRIRIRWFP-NH2 [R-DIM-P-PEP-322, PFWRIRIRRPRRIRIRWFP-NH2]”, the IC50 in series [11] is 15 µM; in series [5] it was 80 µM; in series [13] it was 8 µM; in series [3] it was above 80 µM. Besides, the “increase of green fluorescence (caspase-3/7 activity)” value in series [15] is 200 fold. Further, the “PI positive SBcl-2 cells” value in series [6] (20 μM peptide) is listed as “more than 80%”. In series [16], the “sensitivity of WM164 for the peptide” value is recorded as “highly sensitive”. In addition, the melanocytes killed entry in series [17] is given as “less than 1%”. In series [10], the “activity and selectivity” value is “cancer active and specific; also recorded: selective for cancer cells”. Further, the “specificity for cancer cells (PI-uptake ratio SBcl-2 vs. melanocytes)” value in series [10] (20 μM peptide, 8 h) is “more than 100 fold”. For the same compound, the “Cancer Specificity, -fold specificity for melanoma over non tumor skin cells” value in series [10] (20 μM peptide) was “(R-DIM-), >100fold)”. Moreover, the “% lysis of 2.5% RBCs” value in series [8] (500 μg/ml peptide) is 0.84 ± 0.63%. Besides, the “hemolysis IC50” value in series [8] is above 500 µg/mL. Besides, the “blue shift of Trp emission wavelength, PC” value in series [18] is “no blue shift appears”. The “blue shift of Trp emission wavelength, PS” value in series [19] is “blue shift is only detected in presence of the target lipid PS”. Further, the “time to highest activity against cancer cells” value in [9] was 4 to 8 h. For the same compound, the “cytotoxic activity against cancer cells (killing)” value in series [9] is listed as “up to 80%”.

Consider “PFWRRRIRIRR RRIRIRRRWFP (PFWRRRIRIRRRRIRIRRRWFP) [R-DIM-PEP-337]”, for which the “activity and selectivity” value in [10] is listed as “less specific”. Moreover, the “Cancer Specificity, -fold specificity for melanoma over non tumor skin cells” value in series [10] (20 μM peptide) is on record as “(2fold) (R-DIM-)”.

As to “RWKRINRQWFFWQRNIRKWR-NH2 [R-DIM-PEP-316]”, in series [10], the “activity and selectivity” value was “specific; also recorded: selective for cancer cells”. Moreover, the “Cancer Specificity, -fold specificity for melanoma over non tumor skin cells” value in series [10] (20 μM peptide) is “Yes (15fold) (R-DIM-)”.
